Measured values as given in patent publication US7973012B2, “C-phenyl glycitol compound” (Taisho Pharmaceutical Co., Ltd, priority 2006, dated 2011).

Legend:
human SGLT2 = target: T1, human SGLT2 (Homo sapiens, UniProt P31639); assay: Inhibition test of sodium-dependent sugar uptake in CHO-k1 cells stably expressing human SGLT2; format: cell-based; conditions: for IC50: CHO-k1 cells expressing human SGLT2, [14C]methyl α-D-glucopyranoside uptake, 37° C., an hour; for SGLT2 % inhibition at 100 nM: sugar uptake inhibition rate at 100 nM test compound vs control group
T1 construct: expressed in transfected cells; host or cells: CHO-k1
T1 sequence (P31639 1-672): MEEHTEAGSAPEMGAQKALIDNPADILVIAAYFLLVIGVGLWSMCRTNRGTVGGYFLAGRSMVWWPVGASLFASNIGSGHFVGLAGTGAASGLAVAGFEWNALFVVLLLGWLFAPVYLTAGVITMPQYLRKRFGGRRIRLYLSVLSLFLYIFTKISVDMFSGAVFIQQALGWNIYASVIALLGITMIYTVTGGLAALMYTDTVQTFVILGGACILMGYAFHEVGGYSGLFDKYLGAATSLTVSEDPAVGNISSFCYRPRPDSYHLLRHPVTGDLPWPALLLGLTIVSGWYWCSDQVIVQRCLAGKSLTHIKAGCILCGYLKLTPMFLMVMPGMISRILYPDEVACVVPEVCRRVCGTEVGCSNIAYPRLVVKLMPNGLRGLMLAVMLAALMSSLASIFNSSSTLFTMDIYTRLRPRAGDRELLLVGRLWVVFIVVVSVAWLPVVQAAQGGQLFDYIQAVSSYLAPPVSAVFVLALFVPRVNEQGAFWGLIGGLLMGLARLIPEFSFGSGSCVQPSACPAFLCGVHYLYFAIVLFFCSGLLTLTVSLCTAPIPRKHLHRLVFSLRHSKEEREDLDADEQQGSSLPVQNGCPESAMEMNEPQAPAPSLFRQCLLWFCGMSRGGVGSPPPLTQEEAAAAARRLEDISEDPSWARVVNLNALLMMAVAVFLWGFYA
Protocol: (§1) An SGLT1 sequence (NM_000343) was reverse-transcripted from human small intestinal mRNA, then amplified, and then introduced into pCMV-tag5A from Stratagene Corporation. An SGLT2 sequence (NM_003041) was prepared from human nephric mRNA as with the above method, and then introduced into pcDNA3.1+hygro from Invitrogen Corporation. Each cloned sequence was confirmed to be identical with the reported sequence.
(§2) The human SGLT1 and human SGLT2 expression vectors were transfected into CHO-k1 cells by using Lipofectamine 2000 from Invitrogen Corporation. The SGLT expression cells were incubated in the presence of Geneticin (SGLT1) or Hygromycin B (SGLT2) at a 500 μg/mL concentration to select resistant strains, and specific activity of sugar uptake was obtained as an indicator by the following system.
(§3) Cells stably expressing human SGLT1 and human SGLT2 were used for the inhibition test of sodium-dependent glucose uptake.
(§4) The cells were incubated in a pretreatment buffer A (200 μL for SGLT1, and 2 mL for SGLT2) for 20 minutes. The pretreatment buffer was removed and an uptake buffer B (75 μL for SGLT1, and 200 μL for SGLT2) containing a test compound was added to conduct an uptake reaction at 37° C. for 30 minutes (SGLT1) or an hour (SGLT2). After the reaction, the cells were washed with a washing buffer C twice (200 μL for SGLT1, and 2 mL for SGLT2), and then dissolved in a 0.2 M solution of NaOH (75 μL for SGLT1, and 400 μL for SGLT2). After a liquid scintilater was added thereto and mixed sufficiently, radioactivity was measured with microBETA (SGLT1) or a liquid scintillation counter from Beckman Coulter, Inc (SGLT2). As a control group, an uptake buffer containing no test compound was prepared. In addition, as the basic uptake buffer, an uptake buffer B containing choline chloride instead of NaCl was prepared. • A pretreatment buffer A: 140 mM choline chloride, 2 mM KCl, 1 mM CaCl2, 1 mM MgCl2, 10 mM HEPES/5 mM Tris, pH 7.4. • An uptake buffer B: 1 mM of methyl α-D-glucopyranoside containing [^14C]methyl α-D-glucopyranoside, 140 mM NaCl, 2 mM KCl, 1 mM CaCl2, 1 mM MgCl2, 10 mM HEPES/5 mM Tris, pH 7.4. • A washing buffer C: 10 mM methyl α-D-glucopyranoside, 140 mM choline chloride, 2 mM KCl, 1 mM CaCl2, 1 mM MgCl2, 10 mM HEPES/5 mM Tris, pH 7.4.
(§5) In order to obtain IC50 values, test compounds having adequate 6 concentrations were used and the test compound concentrations (IC50 values) at which sugar uptake is inhibited by 50% in comparison with the amount of sugar uptake (100%) of the control group were calculated.
(§6) In addition, the sugar uptake inhibition rates at 100 nM concentration of the test compound in comparison with the control group are shown in Table 7.

[1] = test system: Streptozotocin diabetic model rats; assay: Oral glucose tolerance test in streptozotocin diabetic model rats; format: in vivo; conditions: Rattus norvegicus; STZ diabetic SD/IGS rats; 1 mg/kg oral, glucose 2 g/kg oral 5 minutes later; decrease rate of ΔAUC 0-1 h vs control group; read-out: STZ rats-OGTT(2 g/kg) % inhibition ΔAUC0-1 h(mgh/dL) @1 mg/kg
Protocol: 7-week-old SD/IGS rats (from CHARLES RIVER LABORATORIES JAPAN, INC., male) were fasted for about 16 hours. Then to these rats under etherization were administered 50 mg/kg of streptozotocin (STZ) via the tail vein to prepare diabetic model rats. Similarly, to rats under etherization were administered 1 mL/kg physiological saline containing 1.25 mmol/L of citric acid via tail veins to prepare normal control rats. One week (8 weeks old) after administration of STZ or 1.25 mmol/L citric acid physiological saline, the rats were subjected to oral glucose tolerance test.
After the rats were fasted for about 16 hours, the medicament (1 mg/kg) suspended in a 0.5% carboxymethyl cellulose (CMC) aqueous solution was orally administered to a medicament treated group, and only a 0.5% aqueous solution of CMC was orally administered to a control group. At 5 minutes after the administration, a glucose solution (2 g/kg) was orally administered to each rat, and blood was collected at 5 points in total: before the administration (0 time), after 0.25, 0.5, 1 and 2 hours after the oral administration.
The blood was collected from the orbital sinus venosus of each rat under etherization with a heparin-coated blood collection tube and centrifuged, and then blood plasma was separated. The concentration of glucose in the blood plasma was determined with Glucose CII Test Wako from Wako Pure Chemical Industries, Ltd. As for the intensity of inhibitory effect on elevation of blood glucose level, area under the blood glucose level curve (AUC) was calculated by the trapezoidal rule based on the blood glucose levels of the medicament treated group from 0 time to 1 hour time. And a basal value is subtracted from AUC to describe the intensity as area under the blood glucose level increment (ΔAUC) and describe the intensity as a decrease rate from the ΔAUC of the control group.

human SGLT1 = target: T2, human SGLT1 (Homo sapiens, UniProt P13866); assay: Inhibition test of sodium-dependent sugar uptake in CHO-k1 cells stably expressing human SGLT1; format: cell-based; conditions: for IC50: CHO-k1 cells expressing human SGLT1, [14C]methyl α-D-glucopyranoside uptake, 37° C., 30 minutes; for SGLT1 % inhibition at 100 nM: sugar uptake inhibition rate at 100 nM test compound vs control group
T2 construct: expressed in transfected cells; host or cells: CHO-k1
T2 sequence (P13866 1-664): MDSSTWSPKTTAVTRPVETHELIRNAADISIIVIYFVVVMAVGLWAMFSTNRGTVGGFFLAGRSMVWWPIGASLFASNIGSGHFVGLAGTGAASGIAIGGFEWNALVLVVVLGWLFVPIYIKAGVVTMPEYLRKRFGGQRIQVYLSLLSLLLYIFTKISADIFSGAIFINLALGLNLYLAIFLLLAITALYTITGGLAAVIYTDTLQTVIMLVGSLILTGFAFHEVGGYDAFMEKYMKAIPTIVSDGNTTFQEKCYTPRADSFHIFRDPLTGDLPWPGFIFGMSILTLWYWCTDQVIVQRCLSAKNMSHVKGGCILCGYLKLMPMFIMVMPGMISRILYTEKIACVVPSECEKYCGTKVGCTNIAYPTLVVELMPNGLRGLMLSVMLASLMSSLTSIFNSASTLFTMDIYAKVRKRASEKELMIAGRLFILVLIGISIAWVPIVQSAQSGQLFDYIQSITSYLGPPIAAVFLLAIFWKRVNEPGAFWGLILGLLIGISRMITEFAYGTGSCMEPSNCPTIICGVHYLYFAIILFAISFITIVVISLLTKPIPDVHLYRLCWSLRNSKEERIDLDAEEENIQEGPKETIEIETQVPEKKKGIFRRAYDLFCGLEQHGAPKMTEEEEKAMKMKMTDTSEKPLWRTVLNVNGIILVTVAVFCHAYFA
Protocol: as §1, §2, §3, §4, §5, §6

SMILES	IC50 (human SGLT2)	inhibition in vivo at 1 mg/kg [1]	IC50 (human SGLT1)	SGLT2 % inhibition at 100 nM (human SGLT2)	SGLT1 % inhibition at 100 nM (human SGLT1)
Cc1cc(O)c([C@@H]2O[C@H](CO)[C@@H](O)[C@H](O)[C@H]2O)cc1Cc1ccc(CCCC(=O)NC(C)(C)C(N)=O)cc1 [Compound 4, (1S)-1-[5-[4-[4-[(2-amino-1,1-dimethyl-2-oxoethyl)amino]-4-oxobutyl]benzyl]-2-hydroxy-4-methylphenyl]-1,5-anhydro-D-glucitol]	31 nM	51%	51 nM		
Cc1cc(O)c([C@@H]2O[C@H](CO)[C@@H](O)[C@H](O)[C@H]2O)cc1Cc1ccc(CCCNC(=O)NC(C)(C)CO)cc1 [Compound 8, (1S)-1,5-anhydro-1-[5-[4-[3-[[(2-hydroxy-1,1-dimethylethyl)aminocarbonyl]amino]propyl]benzyl]-2-hydroxy-4-methylphenyl]-D-glucitol]	29 nM	45.1%	65 nM		
Cc1cc(O)c([C@@H]2O[C@H](CO)[C@@H](O)[C@H](O)[C@H]2O)cc1Cc1ccc(CCCC(=O)NC(C)(CO)CO)cc1 [Compound 2, (1S)-1,5-anhydro-1-[2-hydroxy-5-[4-[4-[[2-hydroxy-1-(hydroxymethyl)-1-methylethyl]amino]-4-oxobutyl]benzyl]-4-methylphenyl]-D-glucitol]	18 nM	51.6%	32 nM		
Cc1cc(O)c([C@@H]2O[C@H](CO)[C@@H](O)[C@H](O)[C@H]2O)cc1Cc1ccc(CCNC(=O)NC(C)(C)C(=O)N2CCN(C)CC2)cc1 [Compound 12, (1S)-1,5-anhydro-1-[5-[4-[2-[[[1-[1-(4-methylpiperazin-1-yl)carbonyl]-1-(methyl)ethyl]aminocarbonyl]amino]ethyl]benzyl]-2-hydroxy-4-methylphenyl]-D-glucitol]	48 nM	48.8%	113 nM		
Cc1cc(O)c([C@@H]2O[C@H](CO)[C@@H](O)[C@H](O)[C@H]2O)cc1Cc1ccc(CCNC(=O)NCc2ccccc2)cc1 [Compound 68]				83%	60%
Cc1cc(O)c([C@@H]2O[C@H](CO)[C@@H](O)[C@H](O)[C@H]2O)cc1Cc1ccc(CCNC(=O)N(CC(C)C)CC(C)C)cc1 [Compound 59]				86%	67%
Cc1cc(O)c([C@@H]2O[C@H](CO)[C@@H](O)[C@H](O)[C@H]2O)cc1Cc1ccc(CCNC(=O)NC2(CO)CCCC2)cc1 [Compound 23]	19 nM		19 nM		
Cc1cc(O)c([C@@H]2O[C@H](CO)[C@@H](O)[C@H](O)[C@H]2O)cc1Cc1ccc(CCNC(=O)NC2CCN(Cc3ccccc3)CC2)cc1 [Compound 33]	11 nM		12 nM		
Cc1cc(O)c([C@@H]2O[C@H](CO)[C@@H](O)[C@H](O)[C@H]2O)cc1Cc1ccc(CCNC(=O)NC(C)(C)CO)cc1 [Compound 10, (1S)-1,5-anhydro-1-[5-[4-[2-[[(2-hydroxy-1,1-dimethylethyl)aminocarbonyl]amino]ethyl]benzyl]-2-hydroxy-4-methylphenyl]-D-glucitol]	23 nM	67.8%	51 nM		
COC(=O)CNC(=O)NCCc1ccc(Cc2cc([C@@H]3O[C@H](CO)[C@@H](O)[C@H](O)[C@H]3O)c(O)cc2C)cc1 [Compound 21]	34 nM		75 nM		
Cc1cc(O)c([C@@H]2O[C@H](CO)[C@@H](O)[C@H](O)[C@H]2O)cc1Cc1ccc(CCCC(=O)NC(CO)(CO)CO)cc1 [Compound 3, (1S)-1,5-anhydro-1-[2-hydroxy-5-[4-[4-[[2-hydroxy-1,1-bis(hydroxymethyl)ethyl]amino]-4-oxobutyl]benzyl]-4-methylphenyl]-D-glucitol]	65 nM	63.9%	35 nM		
Cc1cc(O)c(C2OC(CO)C(O)C(O)C2O)cc1Cc1ccc(CCNC(=O)NC2CCN(Cc3ccccc3)C2)cc1 (mixture of isomers) [Compound 132]				90%	90%
Cc1cc(O)c([C@@H]2O[C@H](CO)[C@@H](O)[C@H](O)[C@H]2O)cc1Cc1ccc(CCNC(=O)NCCN2CCCC2)cc1 [Compound 30]	13 nM		111 nM		
Cc1cc(O)c([C@@H]2O[C@H](CO)[C@@H](O)[C@H](O)[C@H]2O)cc1Cc1ccc(CCNC(=O)NCC2CCCCC2)cc1 [Compound 28]	18 nM		64 nM		
Cc1cc(O)c([C@@H]2O[C@H](CO)[C@@H](O)[C@H](O)[C@H]2O)cc1Cc1ccc(CCNC(=O)NCCCCc2ccccc2)cc1 [Compound 62]				79%	65%
